Two compounds from US11884649B2, “IRE1α inhibitors and uses thereof” (The Regents of the University of California, priority 2020, dated 2024) can be followed below.

For one experiment, the target named is T1, IRE1α (Mus musculus, UniProt Q9EQY0).
T1 construct: expressed in transfected cells
The experiment is described as follows: IRE1α autophosphorylation by Phos-tag SDS-PAGE in INS-1 cells expressing IRE1α under Dox control. It counts as cell-based, rat. Conditions: various concentrations, 5 ng/mL Dox. Here is the method: We next tested PAIR1 and KIRA9 in an INS-1 rat insulinoma stable cell line where IRE1α activation can be achieved through conditional overexpression of a mouse IRE1α transgene (Han et al., 2009).
Treatment Conditions for Phostag Gels
INS-1 or IRE1α-overexpressing isogenic INS-1 cells were plated onto a 24-well Poly-D-Lysine coated tissue culture plate and grown for 48 hrs. Inhibitor or DMSO were added to the media and incubated for 1 hour at 37° C. with 5% CO2 prior to addition of ER stress agents. […] Cells were lysed directly into SDS loading buffer (50 mM Tris, 100 mM DTT, 2% SDS (w/v), 10% glycerol (v/v), and 0.1% bromophenol blue (w/v), pH 6.8) and boiled for five minutes prior to gel loading.
Phostag Acrylamide Gel Procedure
A phostag acrylamide gel recipe used to resolve phosphorylation of IRE1α has been previously established and this recipe was followed verbatim for this study.^91 Resolving gels were allowed to solidify (˜1.5 hr) before adding the stacking gel and comb and allowed to solidify (˜1 hr). Gels were run using Tris-Glycine-SDS running buffer (25 mM Tris, 192 mM glycine, 0.1% SDS, pH 8.3) at 100 V for 3-3.5 hours. After the gels have ran, they were transferred onto nitrocellulose paper via rapid transfer using a Transblot Turbo and premade transfer packs. Gels were transferred at 25 V, 2.5 A for 15 minutes. […]

For experiment [1], the system named is lysate kinases (HEK293/HCT116 lysate mixture). The experiment can be described thus: Kinome selectivity profiling by kinobead competition. Type of experiment: binding. Conditions: 10 μM compound. How it is done:
Prior to conducting cellular studies with PAIRs, we first performed comprehensive kinome selectivity profiling using a chemical proteomic method (FIG. 4A).^41-43 To do this, we measured the ability of 1, 2, 5, 6, PAIR, and KIRA9 to compete with lysate kinases for binding to a mixture of bead-immobilized, nonselective kinase inhibitors (kinobeads). Each compound (10 μM) was incubated with a standard kinobead matrix and a HEK293/HCT116 lysate mixture and competed kinases were quantified using mass spectrometry.
Kinome Profiling and Selectivity Kinobead Enrichment Protocol
HEK293 and HCT116 cells were plated on 15 cm plates until 90% confluent and lysed into 750 μL modified RIPA buffer (50 mM Tris, 150 mM NaCl, 10 mM NaF, 1% NP40, 0.25% sodium deoxycholate, 5% glycerol, pH 7.8) containing protease inhibitor (Pierce Protease Inhibitor Tablets and 1 mM PMSF) and phosphatase inhibitor (Phosphatase inhibitor cocktail 2 and 3, Sigma Aldrich). Protein content was determined via Bradford assay. […]
Tryptic peptides were separated using a nanoAcquity UPLC instrument with 10 cm fused silica capillary columns made in house and packed with 5 μm 120 Å reverse-phase C18 beads (ReproSil-Pur®, Maisch). […] MS data was analyzed using a Thermo Orbitrap Fusion Tribrid. Raw files were analyzed using MaxQuant (Andromeda) Version 1.6.0.16. […]

The target in a further experiment is T2, IRE1α* (Homo sapiens, UniProt O75460).
T2 construct: human IRE1α (residues 547-977, IRE1α*) was expressed in SF9 insect cells; His6 (N); made in house; host or cells: Sf9 insect cells (Bac-to-Bac baculovirus)
T2 sequence (O75460 547-977): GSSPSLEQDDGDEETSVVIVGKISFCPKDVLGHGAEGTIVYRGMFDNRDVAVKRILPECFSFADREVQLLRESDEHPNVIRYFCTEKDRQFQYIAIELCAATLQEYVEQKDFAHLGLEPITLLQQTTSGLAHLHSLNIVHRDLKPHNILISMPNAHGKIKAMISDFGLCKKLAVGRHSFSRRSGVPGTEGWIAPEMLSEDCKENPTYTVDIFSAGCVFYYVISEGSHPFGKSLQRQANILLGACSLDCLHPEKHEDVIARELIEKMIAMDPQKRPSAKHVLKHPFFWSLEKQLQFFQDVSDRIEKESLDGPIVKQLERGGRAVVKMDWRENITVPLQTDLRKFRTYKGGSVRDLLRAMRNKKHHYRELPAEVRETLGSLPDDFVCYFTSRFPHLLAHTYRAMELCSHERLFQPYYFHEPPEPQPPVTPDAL
The experiment can be described thus: In vitro RNase activity assay, XBP1-mini substrate cleavage, inhibitor titrations. It counts as biochemical. Conditions: relative to apo IRE1α*. How it is done:
In Vitro RNase Activity Assay Inhibitor Titrations
50 nM IRE1α* was incubated with inhibitor (initial concentration of 10 or 60 μM, three-fold serial dilutions) or DMSO for 30 min in assay buffer (20 mM Tris, 50 mM NaCl, 1 mM MgCl2, 2 mM DTT, 0.05% Triton X-100 (v/v), pH 7.5). Assays were initiated by adding 10 μL of XBP1-mini substrate (5′-Alex647-CAUGUCCGCAGCGCAUG-IowaBlack-FQ-3′ (SEQ ID NO: 1); IDT) to the wells at a final concentration of 200 nM and a final well volume of 30 μL. Fluorescence was detected on a Perkin Elmer Envision Microplate Reader at excitation and emission wavelengths of 650 nm and 665 nm. Dose-response curves were fit using “one-site fit log IC50” parameter using GraphPad Prism analysis software.

T1 sequence (Q9EQY0 21-977): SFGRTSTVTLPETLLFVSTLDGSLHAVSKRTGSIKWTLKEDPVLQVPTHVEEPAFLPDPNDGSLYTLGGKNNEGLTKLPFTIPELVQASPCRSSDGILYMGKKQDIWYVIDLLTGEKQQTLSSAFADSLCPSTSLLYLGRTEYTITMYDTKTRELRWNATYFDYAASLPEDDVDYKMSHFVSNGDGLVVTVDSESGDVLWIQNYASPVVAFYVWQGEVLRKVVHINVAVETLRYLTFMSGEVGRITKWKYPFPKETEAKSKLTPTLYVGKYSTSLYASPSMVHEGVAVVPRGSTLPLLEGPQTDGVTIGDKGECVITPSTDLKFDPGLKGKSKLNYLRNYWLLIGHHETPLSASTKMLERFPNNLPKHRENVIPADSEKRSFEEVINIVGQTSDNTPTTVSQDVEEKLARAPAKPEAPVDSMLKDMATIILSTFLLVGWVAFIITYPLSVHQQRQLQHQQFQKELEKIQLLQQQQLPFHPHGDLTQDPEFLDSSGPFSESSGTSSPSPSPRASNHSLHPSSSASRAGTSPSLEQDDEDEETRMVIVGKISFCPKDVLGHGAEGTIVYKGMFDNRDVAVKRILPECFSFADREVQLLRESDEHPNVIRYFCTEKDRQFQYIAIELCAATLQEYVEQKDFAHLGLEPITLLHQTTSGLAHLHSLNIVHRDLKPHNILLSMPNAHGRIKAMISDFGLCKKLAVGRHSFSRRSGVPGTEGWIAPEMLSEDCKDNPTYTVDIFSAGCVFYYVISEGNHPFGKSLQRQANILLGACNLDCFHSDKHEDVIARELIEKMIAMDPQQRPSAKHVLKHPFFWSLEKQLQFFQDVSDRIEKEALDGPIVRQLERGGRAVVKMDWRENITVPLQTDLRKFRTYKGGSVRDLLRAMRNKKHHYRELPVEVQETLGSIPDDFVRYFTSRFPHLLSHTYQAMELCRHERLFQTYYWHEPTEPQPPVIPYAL

As for `O=S(=O)(CC(F)(F)F)Nc1ccc(Oc2ncccc2-c2ccnc(N[C@H]3CCCNC3)n2)c2ccccc12` (stereo in doubt) [PAIR1, 2,2,2-trifluoro-N-(4-(3-(2-(piperidin-3-ylamino)pyrimidin-4-yl)pyridin-2-yloxy)naphthalen-1-yl)ethanesulfonamide], on IRE1α, the IRE1α autophosphorylation result is “equivalently block the autophosphorylation”. For the same compound, the kinome selectivity result in experiment [1] is recorded as “high selectivity for IRE1α”. For the same compound, the “RNase activity of IRE1α* (in words)” value on IRE1α* is given as “partially inhibit”.
Regarding `O=S(=O)(CCC(F)(F)F)Nc1ccc(Oc2ncccc2-c2ccnc(NC3CCCNC3)n2)c2ccccc12` (centres unmarked) [KIRA9, 3,3,3-trifluoro-N-(4-(3-(2-(piperidin-3-ylamino)pyrimidin-4-yl)pyridin-2-yloxy)naphthalen-1-yl)propane-1-sulfonamide], at IRE1α, the IRE1α autophosphorylation result is “equivalently block the autophosphorylation”. Moreover, the kinome selectivity entry in experiment [1] is “equivalent potency and selectivity”.
